Assay results: patent US20010020032A1, “COATED PARTICLE FORMULATION” (priority 1996, published 2001)

Columns and labels:
[1] = Polymorphic stability of Form II on solvent contact; assay type: physicochemical; conditions: contact with methylene chloride
[2] = Stability studies: discoloration on storage or excipient contact; assay type: physicochemical; conditions: olanzapine substance in contact with polyethylene glycol, particularly under moist conditions
[3] = Detection of radiolabelled compound in saliva; assay type: in vivo
Description: Olanzapine is effective over a wide dosage range, the actual dose administered being dependent on the condition being treated. For example, in the treatment of adult humans, dosages of from about 0.25 to 50 mg, preferably from 1 to 30 mg, and most preferably 1 to 25 mg per day may be used. A once a day dosage is normally sufficient, although divided doses may be administered. For treatment of central nervous system disorders, a dose range of from 1 to 30 mg, preferably 1 to 25 mg per day is suitable.

Cc1cc2c(s1)Nc1ccccc1N=C2N1CCN(C)CC1 [Form II, 2-methyl-4-(4-methyl-1-piperazinyl)-10H-thieno[2,3-b][1,5]benzodiazepine]
conversion to other polymorphic forms [1]: can be converted to less desirable polymorphic forms

Cc1cc2c(s1)Nc1ccccc1N=C2N1CCN(C)CC1 [olanzapine, 2-methyl-4-(4-methyl-1-piperazinyl)-10H-thieno[2,3-b][1,5] benzodiazepine]
discoloration on polyethylene glycol contact [2]: produces undesired discoloration

Cc1cc2c(s1)Nc1ccccc1N=C2N1CCN(C)CC1 [Radiolabelled Form II, 2-methyl-4-(4-methyl-1-piperazinyl)-10H-thieno-[2,3-b][1,5]benzodiazepine]
detection in saliva [3]: can be detected in the saliva
